Usually Ki stands for a dissociation constant, usually derived from enzyme kinetics or from competition with a known ligand.

Molecules are shown by their SMILES.

For the first experiment, the target named is T1, Adenosine receptor A1 (Rattus norvegicus, UniProt P25099).
T1 sequence (P25099 whole entry): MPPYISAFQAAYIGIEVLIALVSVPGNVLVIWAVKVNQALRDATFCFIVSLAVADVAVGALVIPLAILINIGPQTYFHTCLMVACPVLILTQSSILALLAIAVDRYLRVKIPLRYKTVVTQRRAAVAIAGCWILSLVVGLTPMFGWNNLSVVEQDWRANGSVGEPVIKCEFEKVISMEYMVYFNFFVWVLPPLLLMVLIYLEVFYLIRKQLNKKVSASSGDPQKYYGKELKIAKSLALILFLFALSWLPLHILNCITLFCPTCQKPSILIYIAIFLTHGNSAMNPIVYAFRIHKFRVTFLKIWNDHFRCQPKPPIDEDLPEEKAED
As to the kind of experiment: Displacement of [3H]DPCPX from adenosine A1 receptor in rat brain cortex membrane in presence of 0.5 mM GTP. It counts as cell membranes. (In a radioligand displacement assay an active substance lowers the binding of a labelled ligand.)
With `O=c1cc(-c2ccc(O)c(O)c2)oc2cc(O)cc(O)c12` [LUTEOLIN], the inhibition constant Ki amounted to 1.55 µM.

The target in a further experiment is T1, Adenosine receptor A1. The experiment can be described thus: Displacement of [3H]DPCPX from adenosine A1 receptor in rat brain cortex membrane. Format: cell membranes.
In the case of `CC(=O)Cc1cc(O)cc2oc(CO)cc(=O)c12`, the inhibition constant Ki was > 50 µM.
On the same count and under the same terms, then `O=c1cc(-c2ccc(O)c(O)c2)oc2cc(O)cc(O)c12` [LUTEOLIN], with 1.66 µM; and `CC(=O)[C@@H]1c2cc(O)cc(O)c2C(=O)C[C@]1(C)O` (relative stereo), with > 50 µM.
`CC(=O)[C@@H]1c2cc(O)cc(O)c2C(=O)C[C@@]1(C)O` (relative stereo): the Ki was > 50 µM.
On the same count and under the same terms, the value for `CC(=O)Cc1cc(O)cc2oc(C)cc(=O)c12` was > 50 µM.

The values above are taken from ChEMBL document CHEMBL1155686, “Luteolin, a compound with adenosine A(1) receptor-binding activity, and chromone and dihydronaphthalenone constituents from Senna siamea” (J Nat Prod, 2000).
